Measured values reported in ChEMBL document CHEMBL1158350, “Physicochemical and biological characterization of novel macrocycles derived from o-phthalaldehyde” (2009).
In brackets after ≈: the same amount, converted by molar mass. Activity calls are given as the source filed them. The rule behind the calls is not given here.

Key:
[1] = system: Escherichia coli; assay: Antibacterial activity against Escherichia coli MTCC 722 at 1000 ug/ml after 24 hrs by agar diffusion method; type: functional; conditions: MTCC 722, 24 h, read-out: IZ
[2] = system: Bacillus subtilis; assay: Antibacterial activity against Bacillus subtilis MTCC 619 after 24 hrs by liquid dilution method; type: functional; conditions: MTCC 619, 24 h
[3] = system: Staphylococcus aureus; assay: Antibacterial activity against Staphylococcus aureus MTCC 96 at 1000 ug/ml after 24 hrs by agar diffusion method; type: functional; conditions: MTCC 96, 24 h, read-out: IZ
[4] = system: Bacillus subtilis; assay: Antibacterial activity against Bacillus subtilis MTCC 619 at 1000 ug/ml after 24 hrs by agar diffusion method; type: functional; conditions: MTCC 619, 24 h, read-out: IZ
[5] = system: Klebsiella pneumoniae; assay: Antibacterial activity against Klebsiella pneumoniae MTCC 109 at 1000 ug/ml after 24 hrs by agar diffusion method; type: functional; conditions: MTCC 109, 24 h, read-out: IZ
[6] = system: Fusarium; assay: Antifungal activity against Fusarium at 1000 ug/ml after 3 days by diffusion method; type: functional, organism-based
[7] = system: Escherichia coli; assay: Antibacterial activity against Escherichia coli MTCC 722 after 24 hrs by liquid dilution method; type: functional; conditions: MTCC 722, 24 h
[8] = system: Fusarium; assay: Antifungal activity against Fusarium at 500 ug/ml after 3 days by diffusion method; type: functional, organism-based
[9] = system: Aspergillus flavus; assay: Antifungal activity against Aspergillus flavus at 1000 ug/ml after 3 days by diffusion method; type: functional, organism-based
[10] = system: Staphylococcus aureus; assay: Antibacterial activity against Staphylococcus aureus MTCC 96 after 24 hrs by liquid dilution method; type: functional; conditions: MTCC 96, 24 h
[11] = system: Klebsiella pneumoniae; assay: Antibacterial activity against Klebsiella pneumoniae MTCC 109 after 24 hrs by liquid dilution method; type: functional; conditions: MTCC 109, 24 h
[12] = system: Aspergillus flavus; assay: Antifungal activity against Aspergillus flavus at 500 ug/ml after 3 days by diffusion method; type: functional, organism-based

MIC [2] [µg/mL]	MIC [7] [µg/mL]	MIC [10] [µg/mL]	MIC [11] [µg/mL]	SMILES	zone of inhibition at 1000 µg/mL [1] [mm]	zone of inhibition at 1000 µg/mL [3] [mm]	zone of inhibition at 1000 µg/mL [4] [mm]	zone of inhibition at 1000 µg/mL [5] [mm]	Activity [6]	Activity [8]	Activity [9]	Activity [12]
2 (≈ 3.44 µM)	–	–	–	CN[C@@H]1[C@H](O[C@H]2[C@H](O[C@H]3[C@H](O)[C@@H](O)[C@H](N=C(N)N)[C@@H](O)[C@@H]3N=C(N)N)O[C@@H](C)[C@]2(O)C=O)O[C@@H](CO)[C@H](O)[C@H]1O [STREPTOMYCIN]	6	12	10	6	–	–	–	–
10 (≈ 27.9 µM)	2 (≈ 5.58 µM)	2 (≈ 5.58 µM)	2 (≈ 5.58 µM)	C1=N/c2ncccc2OCCCOc2cccnc2/N=C/c2ccccc2/1	32	30	35	29	Active	Active	Active	Active
–	–	–	–	C1=N/c2cc3ccccc3cc2OCCCOc2cc3ccccc3cc2/N=C/c2ccccc2/1	13	14	13	11	Active	Active	Active	Active
–	–	–	–	Cc1cccc2c1/N=C/c1ccccc1/C=N/c1c(C)cccc1OCCO2	11	14	12	12	Active	Active	Active	Active
–	–	–	–	C1=N/c2cc3ccccc3cc2OCCOc2cc3ccccc3cc2/N=C/c2ccccc2/1	14	15	15	14	Active	Active	Active	Active
–	–	–	–	Cc1ccc2c(c1)/N=C/c1ccccc1/C=N/c1cc(C)ccc1OCCCO2	11	14	13	12	Active	Active	Active	Active
–	–	–	–	CC1(C)S[C@@H]2[C@H](NC(=O)[C@H](N)c3ccccc3)C(=O)N2[C@H]1C(=O)O [AMPICILLIN]	8	13	11	7	–	–	–	–
–	–	–	–	Cc1cccc2c1/N=C/c1ccccc1/C=N/c1c(C)cccc1OCCCO2	12	15	13	11	Active	Active	Active	Active
–	–	–	–	C1=N/c2ccccc2OCCOc2ccccc2/N=C/c2ccccc2/1	10	12	11	12	Active	Active	Active	Active
10 (≈ 29 µM)	1 (≈ 2.9 µM)	5 (≈ 14.5 µM)	2 (≈ 5.81 µM)	C1=N/c2ncccc2OCCOc2cccnc2/N=C/c2ccccc2/1	40	35	38	32	Active	Active	Active	Active
–	–	–	–	Cc1ccc2c(c1)/N=C/c1ccccc1/C=N/c1cc(C)ccc1OCCO2	13	12	14	10	Active	Active	Active	Active
–	–	–	–	C1=N/c2ccccc2OCCCOc2ccccc2/N=C/c2ccccc2/1	11	11	10	12	Active	Active	Active	Active

SMILES	MIC [2] [µg/mL]	MIC [7] [µg/mL]	MIC [10] [µg/mL]	MIC [11] [µg/mL]	zone of inhibition at 1000 µg/mL [1] [mm]	zone of inhibition at 1000 µg/mL [3] [mm]	zone of inhibition at 1000 µg/mL [4] [mm]	zone of inhibition at 1000 µg/mL [5] [mm]	Activity [6]	Activity [8]	Activity [9]	Activity [12]
CO[C@H]1/C=C/O[C@@]2(C)Oc3c(C)c(O)c4c(O)c(c(/C=N/N5CCN(C)CC5)c(O)c4c3C2=O)NC(=O)/C(C)=C\C=C\[C@H](C)[C@H](O)[C@@H](C)[C@@H](O)[C@@H](C)[C@H](OC(C)=O)[C@@H]1C [RIFAMPIN]	10 (≈ 12.2 µM)	0.25 (≈ 0.304 µM)	0.25 (≈ 0.304 µM)	0.25 (≈ 0.304 µM)	48	49	51	45	–	–	–	–
